Results published in PubChem BioAssay (NCI).
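48-hour exposure; five concentrations; linearly interpolated endpoints. TGI: total growth inhibition.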

Assays:
Assay in all cases: inhibition of tumour cell growth, NCI panel, 48 h
PC-3 prostate = test system: PC-3 prostate
SF-539 CNS = test system: SF-539 CNS
COLO 205 colon = test system: COLO 205 colon
HCT-116 colon = test system: HCT-116 colon
NCI-H522 lung = test system: NCI-H522 lung
DU-145 prostate = test system: DU-145 prostate
KM12 colon = test system: KM12 colon
SR leukemia = test system: SR leukemia
MCF7 breast = test system: MCF7 breast
CCRF-CEM leukemia = test system: CCRF-CEM leukemia
SK-OV-3 ovarian = test system: SK-OV-3 ovarian
K-562 leukemia = test system: K-562 leukemia
UACC-257 melanoma = test system: UACC-257 melanoma
SNB-19 CNS = test system: SNB-19 CNS
MDA-MB-231 breast = test system: MDA-MB-231 breast
SK-MEL-28 melanoma = test system: SK-MEL-28 melanoma
TK-10 renal = test system: TK-10 renal
A549 NSCLC = test system: A549 NSCLC
OVCAR-4 ovarian = test system: OVCAR-4 ovarian
NCI-H23 lung = test system: NCI-H23 lung
LOX IMVI melanoma = test system: LOX IMVI melanoma
ACHN renal = test system: ACHN renal
MDA-MB-435 = test system: MDA-MB-435
UACC-62 melanoma = test system: UACC-62 melanoma
HCT-15 colon = test system: HCT-15 colon
HS 578T breast = test system: HS 578T breast
SK-MEL-2 melanoma = test system: SK-MEL-2 melanoma
NCI-H460 lung = test system: NCI-H460 lung
SF-268 CNS = test system: SF-268 CNS
CAKI-1 renal = test system: CAKI-1 renal
T-47D breast = test system: T-47D breast
HOP-62 NSCLC = test system: HOP-62 NSCLC
SW-620 colon = test system: SW-620 colon
MDA-N = test system: MDA-N
RPMI-8226 leukemia = test system: RPMI-8226 leukemia
SF-295 CNS = test system: SF-295 CNS
U251 CNS = test system: U251 CNS
NCI/ADR-RES ovarian = test system: NCI/ADR-RES ovarian
HL-60(TB) leukemia = test system: HL-60(TB) leukemia
M14 melanoma = test system: M14 melanoma
MOLT-4 leukemia = test system: MOLT-4 leukemia
EKVX NSCLC = test system: EKVX NSCLC
MALME-3M melanoma = test system: MALME-3M melanoma
NCI-H226 lung = test system: NCI-H226 lung
UO-31 renal = test system: UO-31 renal
A498 renal = test system: A498 renal
HT29 colon = test system: HT29 colon
IGROV1 ovarian = test system: IGROV1 ovarian
OVCAR-3 ovarian = test system: OVCAR-3 ovarian
HCC-2998 colon = test system: HCC-2998 colon
SNB-75 CNS = test system: SNB-75 CNS
SN12C renal = test system: SN12C renal
RXF 393 renal = test system: RXF 393 renal
OVCAR-5 ovarian = test system: OVCAR-5 ovarian
SK-MEL-5 melanoma = test system: SK-MEL-5 melanoma
786-0 renal = test system: 786-0 renal
OVCAR-8 ovarian = test system: OVCAR-8 ovarian
HOP-92 NSCLC = test system: HOP-92 NSCLC

Measured: TGI

O=c1c2ccccc2sc2cccc(NCCCN3CCN(CCCNc4cccc5sc6ccccc6c(=O)c45)CC3)c12
> 100 µM: PC-3 prostate | SF-539 CNS | COLO 205 colon | HCT-116 colon | NCI-H522 lung | DU-145 prostate | KM12 colon | SR leukemia | MCF7 breast | CCRF-CEM leukemia | SK-OV-3 ovarian | K-562 leukemia | UACC-257 melanoma | SNB-19 CNS | MDA-MB-231 breast | SK-MEL-28 melanoma | TK-10 renal | A549 NSCLC | OVCAR-4 ovarian | NCI-H23 lung | LOX IMVI melanoma | ACHN renal | MDA-MB-435 | UACC-62 melanoma | HCT-15 colon | HS 578T breast | SK-MEL-2 melanoma | NCI-H460 lung | SF-268 CNS | CAKI-1 renal | T-47D breast | HOP-62 NSCLC | SW-620 colon | MDA-N | RPMI-8226 leukemia | SF-295 CNS | U251 CNS | NCI/ADR-RES ovarian | HL-60(TB) leukemia | M14 melanoma | MOLT-4 leukemia | EKVX NSCLC | MALME-3M melanoma | NCI-H226 lung | UO-31 renal | A498 renal | HT29 colon | IGROV1 ovarian | OVCAR-3 ovarian | HCC-2998 colon | SNB-75 CNS | SN12C renal | RXF 393 renal | OVCAR-5 ovarian | SK-MEL-5 melanoma | 786-0 renal

CCOC(=O)c1csc(NC(=O)CN2CCN(C)CC2)n1
> 100 µM: PC-3 prostate | COLO 205 colon | DU-145 prostate | KM12 colon | SR leukemia | MCF7 breast | CCRF-CEM leukemia | SK-OV-3 ovarian | K-562 leukemia | UACC-257 melanoma | SNB-19 CNS | MDA-MB-231 breast | SK-MEL-28 melanoma | TK-10 renal | OVCAR-8 ovarian | A549 NSCLC | OVCAR-4 ovarian | NCI-H23 lung | HOP-92 NSCLC | LOX IMVI melanoma | ACHN renal | MDA-MB-435 | UACC-62 melanoma | HCT-15 colon | SK-MEL-2 melanoma | NCI-H460 lung | CAKI-1 renal | T-47D breast | HOP-62 NSCLC | SW-620 colon | MDA-N | RPMI-8226 leukemia | SF-295 CNS | U251 CNS | NCI/ADR-RES ovarian | HL-60(TB) leukemia | M14 melanoma | MOLT-4 leukemia | EKVX NSCLC | MALME-3M melanoma | NCI-H226 lung | UO-31 renal | A498 renal | HT29 colon | IGROV1 ovarian | OVCAR-3 ovarian | HCC-2998 colon | SNB-75 CNS | RXF 393 renal | OVCAR-5 ovarian | SK-MEL-5 melanoma
